# Measured values as given in US20130012432A1, “Peptides for Treatment of Obesity” (Novo Nordisk A/S, priority 2010, published 2013).
# Positions of bridges follow the written chain, without caps; N, C: chain ends. Non-standard residues stand in square brackets, D forms with d. Residues, ends and D or L forms follow the SMILES beside them. Groups on a side chain read outwards from the residue. *: point of attachment. Palmitoyl(16-(5-tetrazolyl)) = O=C(CCCCCCCCCCCCCCCc1nnn[nH]1)*; Lys(CH2CO2H)2 = N[C@@H](CCCCN(CC(=O)O)CC(=O)O)C(=O)O; X1 = O=C(O)CCCCCCCCCCCCCCCCC(=O)NCCOCCOCCN*; C16 diacid = O=C(O)CCCCCCCCCCCCCCC(=O)*; Orn = NCCC[C@H](N)C(=O)O; Dab = NCC[C@H](N)C(=O)O; AEEA = NCCOCCOCC(=O)O
# Assay: physchem
# Protocol: From a stock solution in vehicle, either H2O or 10 mM phosphate, containing 1 mg (as weighed) compound per ml, 8-11 aliquots are withdrawn and pH-adjusted individually with HCl/NaOH, to cover the whole pH range.
# [1] = pH 6.7, Solubility Conc., pH 6.7, vehicle 10 mM phosphate
# [2] = pH 7.2, Solubility Conc., pH 7.2, vehicle 10 mM phosphate
# [3] = pH 8.1, Solubility Conc., pH 8.1, vehicle 10 mM phosphate
compound,measurement,setting,value
"CC(=O)N[C@H]1CC(=O)NCCC[C@@H](C(=O)N2CCC[C@H]2C(=O)N2CCC[C@H]2C(=O)N[C@@H](CCCNC(=N)N)C(=O)N[C@@H](CC(=O)O)C(=O)N[C@@H](CCCCN(CC(=O)O)CC(=O)O)C(=O)N[C@@H](CCCCNC(=O)COCCOCCNC(=O)CCCCCCCCCCCCCCCc2nnn[nH]2)C(N)=O)NC(=O)[C@H](Cc2c[nH]c3ccccc23)NC(=O)[C@H](CCCNC(=N)N)NC(=O)[C@@H](Cc2ccccc2)NC(=O)[C@H](Cc2c[nH]cn2)NC1=O [Example 2, Ac-c[Asp-His-D-Phe-Arg-Trp-Orn]-Pro-Pro-Arg-Asp-Lys(biscarboxymethyl)-Lys[(2-{2-[16-(tetrazol-5-yl)hexadecanoylamino]ethoxy}ethoxy)acetyl]-NH2] (Ac-DH[dF]RW[Orn]PPRD[Lys(CH2CO2H)2]K([AEEA-Palmitoyl(16-(5-tetrazolyl))])-NH2; lactam 1-6)",solubility,"pH 5.8, Solubility Conc.",21 µM
same,solubility,"pH 6.4, Solubility Conc.",26 µM
same,solubility,"pH 7, Solubility Conc.",67 µM
same,solubility,"pH 7.2, Solubility Conc.",172 µM
same,solubility,"pH 7.3, Solubility Conc.",267 µM
same,solubility,"pH 7.4, Solubility Conc.",465 µM
same,solubility,"pH 7.6, Solubility Conc.",454 µM
same,solubility,"pH 7.9, Solubility Conc.",458 µM
"CC(=O)N[C@H]1CCNC(=O)C[C@@H](C(=O)N2CCC[C@H]2C(=O)N[C@@H](CO)C(=O)N[C@@H](CO)C(=O)N[C@@H](CO)C(=O)N[C@@H](CCCCN(CC(=O)O)CC(=O)O)C(=O)N[C@@H](CO)C(=O)N[C@@H](CO)C(=O)NCCOCCOCCNC(=O)CCCCCCCCCCCCCCCCC(=O)O)NC(=O)[C@H](Cc2c[nH]c3ccccc23)NC(=O)[C@H](CCCNC(=N)N)NC(=O)[C@@H](Cc2ccccc2)NC(=O)[C@H](Cc2c[nH]cn2)NC1=O [Example 3, Ac-c[Dab-His-D-Phe-Arg-Trp-Asp]-Pro-Ser-Ser-Ser-Lys(biscarboxymethyl)-Ser-Ser-NH(2-{2-[2-(17-carboxyheptadecanoylamino)ethoxy]ethoxy}ethyl)] (Ac-[Dab]H[dF]RWDPSSS[Lys(CH2CO2H)2]SS-X1; lactam 1-6)",solubility,"pH 4.9, Solubility Conc., pH 4.9, vehicle 10 mM phosphate",24 µM
same,solubility,"pH 5.6, Solubility Conc., pH 5.6, vehicle 10 mM phosphate",32 µM
same,solubility,"pH 6.1, Solubility Conc., pH 6.1, vehicle 10 mM phosphate",54 µM
same,solubility,[1],154 µM
same,solubility,"pH 6.9, Solubility Conc., pH 6.9, vehicle 10 mM phosphate",295 µM
same,solubility,"pH 7.1, Solubility Conc., pH 7.1, vehicle 10 mM phosphate",396 µM
same,solubility,[2],401 µM
same,solubility,"pH 7.4, Solubility Conc., pH 7.4, vehicle 10 mM phosphate",396 µM
same,solubility,"pH 7.7, Solubility Conc., pH 7.7, vehicle 10 mM phosphate",345 µM
same,solubility,[3],360 µM
"CC(=O)N[C@H]1CCCNC(=O)CC[C@@H](C(=O)N2CCC[C@H]2C(=O)N2CCC[C@H]2C(=O)N[C@@H](CCCNC(=N)N)C(=O)N[C@@H](CC(=O)O)C(=O)N[C@@H](CCCCN(CC(=O)O)CC(=O)O)C(=O)N[C@@H](CCCCNC(=O)COCCOCCNC(=O)CCCCCCCCCCCCCCCc2nnn[nH]2)C(N)=O)NC(=O)[C@H](Cc2c[nH]c3ccccc23)NC(=O)[C@H](CCCNC(=N)N)NC(=O)[C@@H](Cc2ccccc2)NC(=O)[C@H](Cc2c[nH]cn2)NC1=O [Example 8, Ac-c[Orn-His-D-Phe-Arg-Trp-Glu]-Pro-Pro-Arg-Asp-Lys(biscarboxymethyl)-Lys[(2-{2-[16-(tetrazol-5-yl)hexadecanoylamino]ethoxy}ethoxy)acetyl]-NH2] (Ac-[Orn]H[dF]RWEPPRD[Lys(CH2CO2H)2]K([AEEA-Palmitoyl(16-(5-tetrazolyl))])-NH2; lactam 1-6)",solubility,"pH 6.5, Solubility Conc.",35 µM
same,solubility,"pH 6.8, Solubility Conc.",44 µM
same,solubility,"pH 7, Solubility Conc.",91 µM
same,solubility,"pH 7.2, Solubility Conc.",268 µM
same,solubility,"pH 7.3, Solubility Conc.",482 µM
same,solubility,"pH 7.4, Solubility Conc.",551 µM
same,solubility,"pH 7.5, Solubility Conc.",538 µM
same,solubility,"pH 7.6, Solubility Conc.",582 µM
same,solubility,"pH 7.8, Solubility Conc.",556 µM
"CC(=O)N[C@H]1CCCNC(=O)C[C@@H](C(=O)N2CCC[C@H]2C(=O)N[C@@H](CO)C(=O)N[C@@H](CO)C(=O)N[C@@H](CO)C(=O)N[C@@H](CCCCN(CC(=O)O)CC(=O)O)C(=O)N[C@@H](CO)C(=O)N[C@@H](CO)C(=O)N[C@@H](CCCCNC(=O)COCCOCCNC(=O)CCCCCCCCCCCCCCC(=O)O)C(N)=O)NC(=O)[C@H](Cc2c[nH]c3ccccc23)NC(=O)[C@H](CCCNC(=N)N)NC(=O)[C@@H](Cc2ccccc2)NC(=O)[C@H](Cc2c[nH]cn2)NC1=O [Example 12, Ac-c[Orn-His-D-Phe-Arg-Trp-Asp]-Pro-Ser-Ser-Ser-Lys(biscarboxymethyl)-Ser-Ser-Lys({2-[2-(15-carboxypentadecanoylamino)ethoxy]ethoxy}acetyl)-NH2] (Ac-[Orn]H[dF]RWDPSSS[Lys(CH2CO2H)2]SSK([AEEA-C16 diacid])-NH2; lactam 1-6)",solubility,"pH 4.8, Solubility Conc., pH 4.8, vehicle 10 mM phosphate",228 µM
same,solubility,"pH 5.8, Solubility Conc., pH 5.8, vehicle 10 mM phosphate",300 µM
same,solubility,"pH 6.3, Solubility Conc., pH 6.3, vehicle 10 mM phosphate",400 µM
same,solubility,[1],431 µM
same,solubility,"pH 7, Solubility Conc., pH 7.0, vehicle 10 mM phosphate",426 µM
same,solubility,[2],479 µM
same,solubility,"pH 7.5, Solubility Conc., pH 7.5, vehicle 10 mM phosphate",405 µM
same,solubility,"pH 7.8, Solubility Conc., pH 7.8, vehicle 10 mM phosphate",480 µM
same,solubility,[3],439 µM
"CC(=O)N[C@H]1CCC(=O)NCC[C@@H](C(=O)N2CCC[C@H]2C(=O)N2CCC[C@H]2C(=O)N[C@@H](CCCNC(=N)N)C(=O)N[C@@H](CC(=O)O)C(=O)N[C@@H](CCCCN(CC(=O)O)CC(=O)O)C(=O)N[C@@H](CCCCNC(=O)COCCOCCNC(=O)CCCCCCCCCCCCCCCc2nnn[nH]2)C(N)=O)NC(=O)[C@H](Cc2c[nH]c3ccccc23)NC(=O)[C@H](CCCNC(=N)N)NC(=O)[C@@H](Cc2ccccc2)NC(=O)[C@H](Cc2c[nH]cn2)NC1=O [Example 16, Ac-c[Glu-His-D-Phe-Arg-Trp-Dab]-Pro-Pro-Arg-Asp-Lys(biscarboxymethyl)-Lys[(2-{2-[16-(tetrazol-5-yl)hexadecanoylamino]ethoxy}ethoxy)acetyl]-NH2] (Ac-EH[dF]RW[Dab]PPRD[Lys(CH2CO2H)2]K([AEEA-Palmitoyl(16-(5-tetrazolyl))])-NH2; lactam 1-6)",solubility,"pH 6.7, Solubility Conc.",42 µM
same,solubility,"pH 7.1, Solubility Conc.",96 µM
same,solubility,"pH 7.3, Solubility Conc.",191 µM
same,solubility,"pH 7.4, Solubility Conc.",262 µM
same,solubility,"pH 7.5, Solubility Conc.",357 µM
same,solubility,"pH 7.6, Solubility Conc.",431 µM
same,solubility,"pH 7.8, Solubility Conc.",409 µM
same,solubility,"pH 8, Solubility Conc.",447 µM
"CC(=O)N[C@H]1CCCNC(=O)C[C@@H](C(=O)N2CCC[C@H]2C(=O)N2CCC[C@H]2C(=O)N[C@@H](CCCNC(=N)N)C(=O)N[C@@H](CC(=O)O)C(=O)N[C@@H](CCCCN(CC(=O)O)CC(=O)O)C(=O)N[C@@H](CCCCNC(=O)COCCOCCNC(=O)CCCCCCCCCCCCCCCc2nnn[nH]2)C(N)=O)NC(=O)[C@H](Cc2c[nH]c3ccccc23)NC(=O)[C@H](CCCNC(=N)N)NC(=O)[C@@H](Cc2ccccc2)NC(=O)[C@H](Cc2c[nH]cn2)NC1=O [Example 17, Ac-c[Orn-His-D-Phe-Arg-Trp-Asp]-Pro-Pro-Arg-Asp-Lys(biscarboxymethyl)-Lys[(2-{2-[16-(tetrazol-5-yl)hexadecanoylamino]ethoxy}ethoxy)acetyl]-NH2] (Ac-[Orn]H[dF]RWDPPRD[Lys(CH2CO2H)2]K([AEEA-Palmitoyl(16-(5-tetrazolyl))])-NH2; lactam 1-6)",solubility,"pH 5.8, Solubility Conc.",25 µM
same,solubility,"pH 6.7, Solubility Conc.",45 µM
same,solubility,"pH 6.9, Solubility Conc.",75 µM
same,solubility,"pH 7.2, Solubility Conc.",297 µM
same,solubility,"pH 7.3, Solubility Conc.",428 µM
same,solubility,"pH 7.4, Solubility Conc.",490 µM
same,solubility,"pH 7.8, Solubility Conc.",470 µM
same,solubility,"pH 8, Solubility Conc.",487 µM
"CC(=O)N[C@H]1CCC(=O)NCCC[C@@H](C(=O)N2CCC[C@H]2C(=O)N2CCC[C@H]2C(=O)N[C@@H](CCCNC(=N)N)C(=O)N[C@@H](CC(=O)O)C(=O)N[C@@H](CCCCN(CC(=O)O)CC(=O)O)C(=O)N[C@@H](CCCCNC(=O)COCCOCCNC(=O)CCCCCCCCCCCCCCC(=O)O)C(N)=O)NC(=O)[C@H](Cc2c[nH]c3ccccc23)NC(=O)[C@H](CCCNC(=N)N)NC(=O)[C@@H](Cc2ccccc2)NC(=O)[C@H](Cc2cnc[nH]2)NC1=O [Example 18, Ac-c[Glu-His-D-Phe-Arg-Trp-Orn]-Pro-Pro-Arg-Asp-Lys(biscarboxymethyl)-Lys({2-[2-(15-carboxypentadecanoylamino)ethoxy]ethoxy}acetyl)-NH2] (Ac-EH[dF]RW[Orn]PPRD[Lys(CH2CO2H)2]K([AEEA-C16 diacid])-NH2; lactam 1-6)",solubility,"pH 5.3, Solubility Conc.",193 µM
same,solubility,"pH 6.1, Solubility Conc.",310 µM
same,solubility,"pH 6.4, Solubility Conc.",326 µM
same,solubility,"pH 6.5, Solubility Conc.",392 µM
same,solubility,"pH 6.8, Solubility Conc.",447 µM
same,solubility,"pH 7.1, Solubility Conc.",484 µM
same,solubility,"pH 7.4, Solubility Conc.",449 µM
same,solubility,"pH 7.7, Solubility Conc.",451 µM
same,solubility,"pH 7.9, Solubility Conc.",474 µM
"CC(=O)N[C@H]1CCCNC(=O)C[C@@H](C(=O)N2CCC[C@H]2C(=O)N2CCC[C@H]2C(=O)N[C@@H](CCCNC(=N)N)C(=O)N[C@@H](CCC(=O)O)C(=O)N[C@@H](CCCCN(CC(=O)O)CC(=O)O)C(=O)N[C@@H](CCCCNC(=O)COCCOCCNC(=O)CCCCCCCCCCCCCCCc2nnn[nH]2)C(N)=O)NC(=O)[C@H](Cc2c[nH]c3ccccc23)NC(=O)[C@H](CCCNC(=N)N)NC(=O)[C@@H](Cc2ccccc2)NC(=O)[C@H](Cc2c[nH]cn2)NC1=O [Example 19, Ac-c[Orn-His-D-Phe-Arg-Trp-Asp]-Pro-Pro-Arg-Glu-Lys(biscarboxymethyl)-Lys[(2-{2-[16-(tetrazol-5-yl)hexadecanoylamino]ethoxy}ethoxy)acetyl]-NH2] (Ac-[Orn]H[dF]RWDPPRE[Lys(CH2CO2H)2]K([AEEA-Palmitoyl(16-(5-tetrazolyl))])-NH2; lactam 1-6)",solubility,"pH 6.3, Solubility Conc.",26 µM
same,solubility,"pH 6.7, Solubility Conc.",38 µM
same,solubility,"pH 6.9, Solubility Conc.",70 µM
same,solubility,"pH 7.2, Solubility Conc.",433 µM
same,solubility,"pH 7.3, Solubility Conc.",447 µM
same,solubility,"pH 7.5, Solubility Conc.",474 µM
same,solubility,"pH 7.7, Solubility Conc.",517 µM
same,solubility,"pH 7.9, Solubility Conc.",441 µM
